The source of these data is patent US20230339836A1, “METHOD FOR PRODUCING REDUCED COENZYME Q10 FORM II CRYSTALS” (KANEKA CORPORATION, priority 2020, published 2023).

Data set [1] is described as follows: Saturated concentration calculated from Expressions 3 to 8 for 99.5% (v/v) ethanol. In kind it is physicochemical. The following applies: calculated by Expressions 7 and 8, natural logarithm. The text has this: Further, the ethanol concentration of 99.5% (v/v) was assigned to Z of Expressions 3, 4, 5, and 6 to obtain the values of the constants AI, BI, AII, and BII. Using these constants, the Log CI of the saturated concentration CI (% by weight) of the Form I-type crystal and the Log CII of the saturated concentration CII (% by weight) of the Form II-type crystal were obtained at each temperature (converting the unit to Kelvin) shown in Table 5 according to Expressions 7 and 8 above.

Data set [2] in a line: Solubility (saturated concentration) of reduced coenzyme Q10 crystals in hydrous ethanol, HPLC of filtered liquid phase. The class given is physicochemical. Here is the method:
The dissolved concentration of reduced coenzyme Q10 in a liquid phase was measured by analyze a liquid phase sample by high performance liquid chromatography under the following conditions.
• Column: SYMMETRY C18 (manufactured by Waters); 250 mm (length), 4.6 mm (inner diameter) • Mobile phase: C2H5OH:CH3OH=4:3 (v:v) • Detection wavelength: 210 nm • Flow rate: 1 ml/min • Retention time of reduced coenzyme Q10: 9.1 min.
The solubility (saturated concentration) (% by weight) of each of a reduced coenzyme Q10 Form I-type crystal (Form I-type crystal) and a reduced coenzyme Q10 Form II-type crystal (Form II-type crystal) in hydrous ethanol with an ethanol concentration per total volume of 99.5% (v/v), 95% (v/v), and 90% (v/v) at temperatures of 298.15K (25° C.), 303.15K (30° C.), 308.15K (35° C.), and 313.15K (40° C.) was obtained.
The solubility was measured by the following procedures.
To approximately 30 g of each hydrous ethanol, approximately 10 g of a Form I-type crystal or a Form II-type crystal was added, the mixture was stirred under a nitrogen atmosphere and maintained for approximately 1 hour at temperatures of 25° C., 30° C., 35° C., and 40° C. Sampling was performed at each temperature and each sample was filtered quickly to obtain a liquid phase sample. Each sample was analyzed under the above HPLC conditions and the solubility was calculated.

The conditions of data set [3]: compared with Form I-type crystal; Patent Literature 4; cited from earlier work.
For data set [4] the following is noted: compared with oxidized coenzyme Q10; cited from earlier work.
Setting [5] is: 90% (v/v) ethanol, 298.15 K (25° C.).
Where [6] appears, read: 90% (v/v) ethanol, 303.15 K (30° C.).
[7] abbreviates: 90% (v/v) ethanol, 308.15 K (35° C.).
Where [8] appears, read: 90% (v/v) ethanol, 313.15 K (40° C.).
Where [9] appears, read: 95% (v/v) ethanol, 298.15 K (25° C.).
The mark [10] stands for this setting: 95% (v/v) ethanol, 303.15 K (30° C.).
Setting [11] is: 95% (v/v) ethanol, 308.15 K (35° C.).
Setting [12] is: 95% (v/v) ethanol, 313.15 K (40° C.).
[13] abbreviates: 99.5% (v/v) ethanol, 298.15 K (25° C.).
The mark [14] stands for this setting: 99.5% (v/v) ethanol, 303.15 K (30° C.).
Setting [15] is: 99.5% (v/v) ethanol, 308.15 K (35° C.).
[16] abbreviates: 99.5% (v/v) ethanol, 313.15 K (40° C.).

The structures appear in SMILES notation.

Turning to `COc1c(O)c(C)c(C/C=C(\C)CC/C=C(\C)CC/C=C(\C)CC/C=C(\C)CC/C=C(\C)CC/C=C(\C)CC/C=C(\C)CC/C=C(\C)CC/C=C(\C)CCC=C(C)C)c(O)c1OC` [Form II, reduced coenzyme Q10], the “Log of saturated concentration (% by weight)” value is reported as −3.858 in data set [1] (10° C.); −2.145 in data set [1] (20° C.); −1.288 in data set [1] (25° C.); −0.432 in data set [1] (30° C.); 0.425 in data set [1] (35° C.). Further, the Solubility in data set [2] (setting [5]) stood at 0.10 % by weight; in data set [2] (setting [6]) it was 0.13 % by weight; in data set [2] (setting [7]), 0.23 % by weight; in data set [2] (setting [8]) it was 0.41 % by weight; in data set [2] (setting [9]), 0.37 % by weight; in data set [2] (setting [10]), 0.52 % by weight. Further, the Solubility is 0.86 % by weight in data set [2] (setting [11]); 2.81 % by weight in data set [2] (setting [12]); 1.22 % by weight in data set [2] (setting [13]); 2.32 % by weight in data set [2] (setting [14]); 5.51 % by weight in data set [2] (setting [15]); 17.9 % by weight in data set [2] (setting [16]). Moreover, the “Stability of crystal form” value in data set [3] is “much more stable than the conventional reduced coenzyme Q10”.
`COc1c(O)c(C)c(C/C=C(\C)CC/C=C(\C)CC/C=C(\C)CC/C=C(\C)CC/C=C(\C)CC/C=C(\C)CC/C=C(\C)CC/C=C(\C)CC/C=C(\C)CCC=C(C)C)c(O)c1OC` [Form I, reduced coenzyme Q10]: the “Log of saturated concentration (% by weight)” value is given as −2.686 in data set [1] (10° C.); −0.584 in data set [1] (20° C.); 0.467 in data set [1] (25° C.); 1.517 in data set [1] (30° C.); 2.568 in data set [1] (35° C.). Besides, the Solubility in data set [2] (setting [5]) came out at 0.13 % by weight; in data set [2] (setting [6]) it was 0.18 % by weight; in data set [2] (setting [7]) it was 0.29 % by weight; in data set [2] (setting [8]), 0.88 % by weight; in data set [2] (setting [9]), 0.65 % by weight; in data set [2] (setting [10]), 1.01 % by weight. For the same compound, the Solubility is 2.33 % by weight in data set [2] (setting [11]); 8.98 % by weight in data set [2] (setting [12]); 2.01 % by weight in data set [2] (setting [13]); 4.53 % by weight in data set [2] (setting [14]); 12.6 % by weight in data set [2] (setting [15]); 46.3 % by weight in data set [2] (setting [16]). Moreover, the “Solubility compared between crystal forms” value in data set [2] (hydrous ethanol with any concentration (99.5, 95, 90% v/v)) is “higher than that of the Form II-type crystal”.
Regarding `COc1c(O)c(C)c(C/C=C(\C)CC/C=C(\C)CC/C=C(\C)CC/C=C(\C)CC/C=C(\C)CC/C=C(\C)CC/C=C(\C)CC/C=C(\C)CC/C=C(\C)CCC=C(C)C)c(O)c1OC` [reduced coenzyme Q10], the Oral absorbability entry in data set [4] was “higher oral absorbability than that of oxidized coenzyme Q10”.
